From patent US20040258779A1, “Dietary and pharmaceutical compositions for treatment of anemia, thrombocytopenia, and leukopenia” (priority 2003, published 2004)
Where “and” joins values, the source holds several entries; their conditions need not be identical. Equal values may be shown once.

Columns and labels:
target cells K-562 = test: Natural killer cell cytotoxicity on 3H-uridine labeled target cells; type: cell-based, human; conditions: for function of natural killer cells, Cytotoxicity (%): 3 hours incubation, K-562 targets, donors 1-7 and mean M
Protocol: Cells were separated after 3 hours of the incubation at 37° C. in CO2 incubator. Their cytotoxic action on the target cells K-562 labeled with ^3H-uridine was evaluated.

human mononuclear cells [1] = test: Cell longevity of mononuclear leukocytes, propidium iodide flow cytometry; type: cell-based; conditions: for cell longivity (percentage of dead cells): time not given (twofold reduction after 72 hours), donors 1-3 and mean M; for cell longevity: after 24 hours treatment; for cell longevity, protective effect: after 48 hours of incubation; for percentage of dead cells: after 72 hours of the incubation
human mononuclear cells [2] = test: GM-CSF production by the human mononuclear cells; type: cell-based; conditions: for GM-CSF production by the human mononuclear cells: donors 1-7 and mean M±; for GM-CSF synthesis, in words: versus random synthesis (control), statistically significant
Protocol: PL-3 was added in concentrations of 100 μg/ml, 10 μg/ml, 1 μg/ml, and feeding media was added to the control wells. Cytokine content was defined by IFA with commercial kit […] (Cytimmune, USA). The effect of PL-3 on the synthesis of GM-CSF was evaluated accordingly to the previous method.

[3] = Hypersensitivity of the delayed type
[4] = system: human mononuclear blood cells; test: TNF alpha production by human mononuclear blood cells; type: cell-based; conditions: for TNF alpha synthesis by mononuclear cells, in words: versus control samples
Protocol: PL-3 was added in concentrations of 100 μg/ml, 10 μg/ml, 1 μg/ml, and feeding media was added to the control wells. Cytokine content was defined by IFA with commercial kit […] (Cytimmune, USA).

neutrophils = test: Active oxygen forms by neutrophils, cytofluorometry; type: cell-based, human; conditions: versus control data (p=0.08)
Protocol: (§1) This effect was evaluated by luminal dependent chemoluminiscence and cytofluorometry. In the second case the leukocytes were added to dichlorofluoroscein […]). This substance is originally non fluorescence one. However, after the penetration into the cells it is turned into green fluorochrom in the presence of the hydrogen peroxide. The reaction was monitored in the flow cytometer FACSCalibur.

[5] = system: leukocytes of the healthy donors; test: Active oxygen forms by leukocytes, luminol dependent chemoluminiscence; type: cell-based, human
Protocol: This effect was evaluated by luminal dependent chemoluminiscence and cytofluorometry. In the first case leukocytes were separated by gelatin and connected with luminal, human serum and added to the vials with the different concentration of the substance.

monocytes = test: Active oxygen forms by monocytes, cytofluorometry; type: cell-based, human; set-up: formation of active oxygen forms by monocytes: unit not given here; conditions: for formation of active oxygen forms by monocytes: single donors and mean M
Protocol: as §1

CC(=O)NC1C(OC2C(CO)OC(O)C(NC(C)=O)C2OC(C)C(=O)NC(C)C(=O)NC(CCC(=O)NC(CCCC(N)C(=O)O)C(=O)NC(C)C(=O)O)C(N)=O)OC(CO)C(O)C1O [PL-3, N-acetyl-glucosamine-N-acetyl-muramyl-L-alanine-D-isoglutamine-diaminopimenic acid-D-alanine]
function of natural killer cells, Cytotoxicity (%) (target cells K-562; 1 μg/ml, listed as GMTP): 45% and 56% and 41% and 37% and 55% and 63% and 48%
function of natural killer cells, Cytotoxicity (%) (target cells K-562; 1 μg/ml, listed as GMTP, mean): 49.2%
function of natural killer cells, Cytotoxicity (%) (target cells K-562; 10 μg/ml, listed as GMTP): 55% and 38% and 44% and 43% and 53% and 65% and 57%
function of natural killer cells, Cytotoxicity (%) (target cells K-562; 10 μg/ml, listed as GMTP, mean): 50.7%
cytotoxic activity of the natural killer cells, in words (target cells K-562; 100 μg/ml): increase the cytotoxic activity
function of natural killer cells, Cytotoxicity (%) (target cells K-562; 100 μg/ml, listed as GMTP): 56% and 55% and 49% and 51% and 66% and 54%
function of natural killer cells, Cytotoxicity (%) (target cells K-562; 100 μg/ml, listed as GMTP, mean): 54.2%
cell longivity (percentage of dead cells) (human mononuclear cells [1]; 1 μg/ml): 16 and 18
cell longivity (percentage of dead cells) (human mononuclear cells [1]; 10 μg/ml): 16 and 21 and 17
cell longivity (percentage of dead cells) (human mononuclear cells [1]; 10 μg/ml, mean): 18
cell longivity (percentage of dead cells) (human mononuclear cells [1]; 100 μg/ml): 19 and 16
cell longivity (percentage of dead cells) (human mononuclear cells [1]; 100 μg/ml, mean): 18
cell longevity (human mononuclear cells [1]): unchanged
cell longevity, protective effect (human mononuclear cells [1]): weak protective effect
percentage of dead cells (human mononuclear cells [1]): twofold reduction
GM-CSF synthesis relative to GMDP (human mononuclear cells [2]; 10 mkg/ml and 100 mkg/ml, p=0.029 and 0.038): almost two times more
GM-CSF production by the human mononuclear cells (human mononuclear cells [2]; 10 mkg/ml): 1109 and 752 and 740 and 1115 and 920 and 1052
GM-CSF production by the human mononuclear cells (human mononuclear cells [2]; 10 mkg/ml, mean): 975 ± 282.5
GM-CSF synthesis, in words (human mononuclear cells [2]): strong inductors
interferon-γ (interferon-γ): does not affect
hypersensitivity of the delayed type [3]: absence of its effect
TNF alpha production in comparison with GMDP [4]: enhanced two fold
TNF alpha synthesis by mononuclear cells, in words [4]: significant increase
active oxygen forms, cytofluometric analysis, in words (neutrophils): stimulated the active oxygen forms
ability of leukocytes to generate the active oxygen forms (chemoluminiscence), in words [5]: did not change
generation of active oxygen forms by monocytes, in words (monocytes): do not generate the active oxygen forms
formation of active oxygen forms by monocytes (monocytes; concentration 1.0 (unit not given), listed as GMTP): 31 and 15 and 29 and 50 and 25 (2×) and 18 (2×) and 16
formation of active oxygen forms by monocytes (monocytes; concentration 1.0 (unit not given), listed as GMTP, mean): 25.2
formation of active oxygen forms by monocytes (monocytes; concentration 10.0 (unit not given), listed as GMTP): 29 and 14 (2×) and 18 (2×) and 13 and 32 and 17 and 15
formation of active oxygen forms by monocytes (monocytes; concentration 10.0 (unit not given), listed as GMTP, mean): 18.9
formation of active oxygen forms by monocytes (monocytes; concentration 100.0 (unit not given), listed as GMTP): 22 and 18 and 13 and 25 and 20 and 42 and 0.6 and 26 and 31
formation of active oxygen forms by monocytes (monocytes; concentration 100.0 (unit not given), listed as GMTP, mean): 23.8

CC(=O)N[C@H]1[C@H](O[C@H]2[C@H](O[C@H](C)C(=O)N[C@@H](C)C(=O)N[C@H](CCC(=O)O)C(N)=O)[C@@H](NC(C)=O)C(O)O[C@@H]2CO)O[C@H](CO)[C@@H](O)[C@@H]1O (some centres unmarked) [GMDP, reference compound]
function of natural killer cells, Cytotoxicity (%) (target cells K-562; 1 μg/ml): 51% and 49% and 38% and 44% and 50% and 47%
function of natural killer cells, Cytotoxicity (%) (target cells K-562; 10 μg/ml): 34% and 48% and 45% and 40% and 53% and 47%
function of natural killer cells, Cytotoxicity (%) (target cells K-562; 100 μg/ml): 33% and 48% and 46% and 44% and 50%
cell longivity (percentage of dead cells) (human mononuclear cells [1]; 1 μg/ml): 16 and 17 and 18
cell longivity (percentage of dead cells) (human mononuclear cells [1]; 10 μg/ml): 17 and 23 and 21
cell longivity (percentage of dead cells) (human mononuclear cells [1]; 100 μg/ml): 15 and 18 and 24
cell longevity (human mononuclear cells [1]): unchanged
cell longevity, protective effect (human mononuclear cells [1]): weak protective effect
percentage of dead cells (human mononuclear cells [1]): twofold reduction
GM-CSF production by the human mononuclear cells (human mononuclear cells [2]; 100 mkg/ml): 983 and 584 and 609 and 944 and 581 and 735 and 773
GM-CSF synthesis, in words (human mononuclear cells [2]): strong inductors
TNF alpha synthesis by mononuclear cells, in words [4]: does not lead to the induction
active oxygen forms, cytofluometric analysis, in words (neutrophils): does not posses this activity
ability of leukocytes to generate the active oxygen forms (chemoluminiscence), in words [5]: did not change
generation of active oxygen forms by monocytes, in words (monocytes): do not generate the active oxygen forms
formation of active oxygen forms by monocytes (monocytes; concentration 1.0 (unit not given)): 27 and 16 (2×) and 23 and 54 and 15 and 12 and 18 and 14
formation of active oxygen forms by monocytes (monocytes; concentration 10.0 (unit not given)): 25 and 14 (2×) and 11 and 16 and 70 and 19 and 15 and 26
formation of active oxygen forms by monocytes (monocytes; concentration 100.0 (unit not given)): 14 and 15 and 12 and 16 (2×) and 34 (2×) and 102 and 19.5
